Laboratory results reported in patent publication US20240252508A1, “Novel glucose uptake inhibitors for use in the treatment of cancer” (NOVELYEAST BV, priority 2021, published 2024).

Assays:
tps1Δ cells [1] = experiment: Glu6P and Fru1,6bisP levels after glucose addition to tps1Δ cells; format: cell-based, S. cerevisiae
Description: For measuring metabolite levels, cells were typically grown in Complete Synthetic medium. […] However, when comparing the effect of Warbicins on metabolite profiles of wild type and tps1Δ strains (FIG. 2f-k), cells were grown on 2% galactose. When grown to exponential phase, cells were harvested by centrifugation and washed twice with ice-cold 25 mM 2-(N-Morpholino)ethanesulfonic acid (MES) buffer, pH 6. Cells were suspended in Complete Synthetic medium without sugar at a concentration of 75 mg (wet weight)/mL followed by a temperature equilibration at 30° C. in a shaking water bath for 30 min. Depending on the experiment, a final concentration of 2.5 mM, 7.5 mM or 10 mM glucose was added to the cell suspension. Compounds were added 10 min prior to glucose addition. […]
Through endpoint measurement of the absorbance of NADH or NADPH at 340 nm, metabolite concentrations were calculated by applying Lambert's Law. Different metabolites were measured through the use of coupled enzymatic reactions. […] Depending on the measured metabolite, different co-factors and auxiliary enzymes were added. For measuring glucose-6-phosphate, 0.8 mg/ml NADP^+ was added to the assay buffer after which the baseline absorbance was measured. […] After stabilization of the OD340 spectra, ATP concentrations were measured by additionally adding 10 mM MgCl2 and 0.5 mM glucose to the assay buffer. […]

tps1Δ cells [2] = experiment: Growth rescue of tps1Δ strain on glucose (growth curves, 2% galactose medium); format: cell-based, S. cerevisiae
Outline: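 tps1Δ yeast pregrown in Complete Synthetic medium with 2% galactose, washed, resuspended to OD 0.1; compounds added 10 min before glucose. Growth followed as OD595 every 30 min at 30 °C in at least three technical replicates.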

[3] = tested on: A549 lung adenocarcinoma cells; experiment: A549 cell proliferation / growth inhibition; format: cell-based, human; details: 50 μM compound, 1 mM glucose
Outline: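 A549 growth screened in RPMI with 1 mM glucose, compounds at 50 μM; cell number from counts of Hoechst-stained nuclei after 3 days. Growth curves also followed by IncuCyte phase-contrast confluency over 3–5 days (1000–1500 cells/well), DMSO ≤0.1%, ≥4 technical repeats.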

Cc1nc(SCC(N)=O)c2c3c(sc2n1)CCCC3 [55C]
Glu6P and Fru1,6bisP hyperaccumulation after addition of 2.5 mM glucose (tps1Δ cells [1]): did not prevent hyperaccumulation of sugar phosphates | Rescue of the tps1Δ strain on 2.5 mM glucose at 100 μM (tps1Δ cells [2]; 100 μM compound, 2.5 mM glucose): No | Rescue of tps1Δ cells on 2.5 mM glucose (tps1Δ cells [2]; 100 μM, 2% galactose + 2.5 mM glucose): highly active | Selected from primary screen for growth inhibition of A549 cells at 50 μM [3]: No
